In patent US9102670B2, “Pyrido-, pyrazo- and pyrimido-pyrimidine derivatives as mTOR inhibitors” (KuDOS Pharmaceuticals Limited, priority 2006, dated 2015) one finds IC50 data, which are given here for 65 compounds.

Structures are written as SMILES.

The first assay relates to phosphorylation of Serine 473 in Akt. The assay can be described thus: In Vitro Phospho-Ser473 Akt Assay in MDA-MB-468 cells. The format is cell-based. The conditions noted are these: Homo sapiens, MDA-MB-468, read-out: IC50 values against mTOR, phospho-Ser473 Akt assay, MDA-MB-468 cells.
`C[C@H]1COCCN1c1nc(N2CCOC[C@@H]2C)c2ccc(-c3ccc(F)cc3)nc2n1` [Example 1aa]: the half-maximal inhibitory concentration (IC50) was less than 100 nM.

Turning to `C[C@H]1COCCN1c1nc(N2CCOC[C@@H]2C)c2ccc(-c3ccc(F)c(C(N)=O)c3)nc2n1` [Example 1ab], the 50% inhibitory concentration (IC50) was less than 300 nM.

As to `CCCNC(=O)c1cc(-c2ccc3c(N4CCOC[C@@H]4C)nc(N4CCOC[C@@H]4C)nc3n2)ccc1F` [Example 1ac], the IC50 was less than 100 nM.

As to `CNC(=O)c1cc(-c2ccc3c(N4CCOC[C@@H]4C)nc(N4CCOC[C@@H]4C)nc3n2)ccc1F` [Example 1ae], the IC50 is less than 100 nM.

As to `CCNC(=O)c1cc(-c2ccc3c(N4CCOC[C@@H]4C)nc(N4CCOC[C@@H]4C)nc3n2)ccc1F` [Example 1af], the concentration for half-maximal inhibition (IC50) was less than 100 nM.

Take `C[C@H]1COCCN1c1nc(N2CCOC[C@@H]2C)c2ccc(-c3ccc(F)c(C(=O)NCCO)c3)nc2n1` [Example 1ag]: the concentration for half-maximal inhibition (IC50) is less than 100 nM.

On to `CC(C)NC(=O)c1cccc(-c2ccc3c(N4CCOC[C@@H]4C)nc(N4CCOC[C@@H]4C)nc3n2)c1` [Example 1al], for which the IC50 is less than 100 nM.

For the compound `C[C@H]1COCCN1c1nc(N2CCOC[C@@H]2C)c2ccc(-c3ccc(S(C)(=O)=O)cc3)nc2n1` [Example 1am], the IC50 is less than 300 nM.

`C[C@H]1COCCN1c1nc(N2CCOC[C@@H]2C)c2ccc(-c3ccc(C(N)=O)cc3)nc2n1` [Example 1ao]: the IC50 is less than 300 nM.

`C[C@H]1COCCN1c1nc(N2CCOC[C@@H]2C)c2ccc(-c3cccc(C(N)=O)c3)nc2n1` [Example 1as]: the IC50 is less than 100 nM.

As to `C[C@H]1COCCN1c1nc(N2CCOC[C@@H]2C)c2ccc(-c3cccc(NS(C)(=O)=O)c3)nc2n1` [Example 1at], the 50% inhibitory concentration (IC50) was less than 100 nM.

As to `C[C@H]1COCCN1c1nc(N2CCOC[C@@H]2C)c2ccc(-c3cc(F)nc(F)c3)nc2n1` [Example 1ay], the half-maximal inhibitory concentration (IC50) was less than 300 nM.

Regarding `COC(=O)c1cccc(-c2ccc3c(N4CCOC[C@@H]4C)nc(N4CCOC[C@@H]4C)nc3n2)c1` [Example 1ba], the IC50 is less than 100 nM.

For `COCc1cccc(-c2ccc3c(N4CCOC[C@@H]4C)nc(N4CCOC[C@@H]4C)nc3n2)c1` [Example 1bb], the IC50 is less than 100 nM.

In the case of `C[C@H]1COCCN1c1nc(N2CCOC[C@@H]2C)c2ccc(-c3ccc(F)c(CO)c3)nc2n1` [Example 1bc], the IC50 was less than 100 nM.

In the case of `C[C@H]1COCCN1c1nc(N2CCOC[C@@H]2C)c2ccc(-c3cccc(S(N)(=O)=O)c3)nc2n1` [Example 1bd], the IC50 is less than 300 nM.

In the case of `COCCNC(=O)c1cccc(-c2ccc3c(N4CCOC[C@@H]4C)nc(N4CCOC[C@@H]4C)nc3n2)c1` [Example 1be], the IC50 is less than 100 nM.

For the compound `COC(=O)c1cc(-c2ccc3c(N4CCOC[C@@H]4C)nc(N4CCOC[C@@H]4C)nc3n2)ccc1OC` [Example 1bg], the IC50 was less than 100 nM.

Take `C[C@H]1COCCN1c1nc(N2CCOC[C@@H]2C)c2ccc(-c3ccc(F)c(NS(C)(=O)=O)c3)nc2n1` [Example 1bk]: the concentration for half-maximal inhibition (IC50) is less than 300 nM.

Consider `C[C@H]1COCCN1c1nc(N2CCOC[C@@H]2C)c2ccc(-c3ccc(C#N)cc3)nc2n1` [Example 1bl], for which the IC50 was less than 100 nM.

For the compound `C[C@H]1COCCN1c1nc(N2CCOC[C@@H]2C)c2ccc(-c3ccc4[nH]ccc4c3)nc2n1` [Example 1bm], the IC50 was less than 100 nM.

On to `COc1ccc(-c2ccc3c(N4CCOC[C@@H]4C)nc(N4CCOC[C@@H]4C)nc3n2)cc1` [Example 1bo], for which the half-inhibitory concentration (IC50) was less than 300 nM.

As for `C[C@H]1COCCN1c1nc(N2CCOC[C@@H]2C)c2ccc(-c3ccc(Cl)cc3)nc2n1` [Example 1bp], the 50% inhibitory concentration (IC50) is less than 300 nM.

Turning to `Cc1cccc(-c2ccc3c(N4CCOC[C@@H]4C)nc(N4CCOC[C@@H]4C)nc3n2)c1` [Example 1br], the half-maximal inhibitory concentration (IC50) is less than 100 nM.

With `COc1ccc(-c2ccc3c(N4CCOC[C@@H]4C)nc(N4CCOC[C@@H]4C)nc3n2)cc1F` [Example 1bs], the IC50 is less than 100 nM.

With `C[C@H]1COCCN1c1nc(N2CCOC[C@@H]2C)c2ccc(-c3ccoc3)nc2n1` [Example 1bv], the 50% inhibitory concentration (IC50) was less than 100 nM.

For the compound `C[C@@H]1CN(c2nc(N3CCOC[C@@H]3C)c3ccc(-c4cccc(CO)c4)nc3n2)C[C@H](C)O1` [Example 1bx], the 50% inhibitory concentration (IC50) was less than 300 nM.

As to `C[C@@H]1CN(c2nc(N3CCOC[C@@H]3C)c3ccc(-c4ccc(CO)cc4)nc3n2)C[C@H](C)O1` [Example 1by], the concentration for half-maximal inhibition (IC50) is less than 300 nM.

Turning to `C[C@@H]1CN(c2nc(N3CCOC[C@@H]3C)c3ccc(-c4cccc(O)c4)nc3n2)C[C@H](C)O1` [Example 1bz], the 50% inhibitory concentration (IC50) was less than 100 nM.

`C[C@@H]1CN(c2nc(N3CCOC[C@@H]3C)c3ccc(-c4ccoc4)nc3n2)C[C@H](C)O1` [Example 1cf]: the IC50 was less than 300 nM.

Take `C[C@@H]1CN(c2nc(N3CCOC[C@@H]3C)c3ccc(-c4ccc(O)cc4)nc3n2)C[C@H](C)O1` [Example 1cg]: the 50% inhibitory concentration (IC50) was less than 100 nM.

Turning to `C[C@@H]1CN(c2nc(N3CCOC[C@@H]3C)c3ccc(-c4ccc([N+](=O)[O-])cc4)nc3n2)C[C@H](C)O1` [Example 1ci], the concentration for half-maximal inhibition (IC50) was less than 300 nM.

Consider `COc1ccc(-c2ccc3c(N4CCOC[C@@H]4C)nc(N4C[C@@H](C)O[C@@H](C)C4)nc3n2)cc1` [Example 1cj], for which the half-maximal inhibitory concentration (IC50) was less than 300 nM.

Take `CNC(=O)c1ccc(-c2ccc3c(N4CCOC[C@@H]4C)nc(N4CCOC[C@@H]4C)nc3n2)cc1F` [Example 1cv]: the IC50 is less than 300 nM.

Regarding `C[C@H]1COCCN1c1nc(N2CCOC[C@@H]2C)c2ccc(-c3ccccc3)nc2n1` [Example 1d], the IC50 is less than 100 nM.

With `C[C@H]1COCCN1c1nc(N2CCOC[C@@H]2C)c2ccc(-c3ccc(O)cc3)nc2n1` [Example 1e], the half-inhibitory concentration (IC50) is less than 100 nM.

With `Cc1ccc(-c2ccc3c(N4CCOC[C@@H]4C)nc(N4CCOC[C@@H]4C)nc3n2)cc1` [Example 1f], the IC50 was less than 100 nM.

Take `C[C@H]1COCCN1c1nc(N2CCOC[C@@H]2C)c2ccc(-c3ccc(CO)cc3)nc2n1` [Example 1g]: the half-maximal inhibitory concentration (IC50) was less than 100 nM.

As for `C[C@H]1COCCN1c1nc(N2CCOC[C@@H]2C)c2ccc(-c3cccc(O)c3)nc2n1` [Example 1h], the IC50 was less than 100 nM.

Turning to `C[C@H]1COCCN1c1nc(N2CCOC[C@@H]2C)c2ccc(-c3cccc(CO)c3)nc2n1` [Example 1i], the 50% inhibitory concentration (IC50) is less than 100 nM.

With `C[C@@H]1CN(c2nc(N3CCOC[C@@H]3C)c3ccc(-c4ccsc4)nc3n2)C[C@H](C)O1` [Example 1k], the IC50 is less than 100 nM.

`COc1ccc(-c2ccc3c(N4CCOC[C@@H]4C)nc(N4CCOCC4)nc3n2)cc1CO` [Example 1l]: the concentration for half-maximal inhibition (IC50) was less than 100 nM.

With `C[C@H]1COCCN1c1nc(N2CCOC[C@@H]2C)c2ccc(-c3cccnc3F)nc2n1` [Example 1p], the IC50 is less than 300 nM.

Regarding `C[C@H]1COCCN1c1nc(N2CCOC[C@@H]2C)c2ccc(-c3ccc(N4CCOCC4)nc3)nc2n1` [Example 1q], the IC50 is less than 300 nM.

Take `C[C@H]1COCCN1c1nc(N2CCOC[C@@H]2C)c2ccc(-c3cnn(C)c3)nc2n1` [Example 1s]: the IC50 is less than 100 nM.

As to `C[C@H]1COCCN1c1nc(N2CCOC[C@@H]2C)c2ccc(-c3ccc(N)nc3)nc2n1` [Example 1u], the half-inhibitory concentration (IC50) was less than 100 nM.

As to `C[C@H]1COCCN1c1nc(N2CCCCC2CO)nc2nc(-c3cccc(C(N)=O)c3)ccc12` (some centres unmarked) [Example 2f], the IC50 is less than 300 nM.

As to `C[C@H]1COCCN1c1nc(N2CCCCC2CO)nc2nc(-c3ccc(N)nc3)ccc12` (some centres unmarked) [Example 2g], the IC50 is less than 300 nM.

Turning to `C[C@H]1COCCN1c1nc(N2CCOC[C@@H]2C)c2ccc(-c3cccc(C(=O)Nc4cc[nH]n4)c3)nc2n1` [Example 3a], the IC50 is less than 300 nM.

As for `CNC(=O)c1cc(-c2ccc3c(N4CCOC[C@@H]4C)nc(N4CCOC[C@@H]4C)nc3n2)ccc1OC` [Example 3ad], the IC50 was less than 100 nM.

On to `C[C@H]1COCCN1c1nc(N2CCOC[C@@H]2C)c2ccc(-c3cccc(C(=O)NCCF)c3)nc2n1` [Example 3e], for which the half-maximal inhibitory concentration (IC50) was less than 300 nM.

The assay is the same for the next values; noted with them: Homo sapiens, MDA-MB-468, read-out: IC50 values against mTOR, phospho-Ser473 Akt assay, MDA-MB-468 cells, upper bound.
`C[C@H]1COCCN1c1nc(N2CCOC[C@@H]2C)c2ccc(-c3ccc(F)nc3)nc2n1` [Example 1ah]: the IC50 is less than 1000 nM.

For the compound `C[C@H]1COCCN1c1nc(N2CCOC[C@@H]2C)c2ccc(-c3ccncc3)nc2n1` [Example 1ar], the IC50 is less than 1000 nM.

Take `C[C@H]1COCCN1c1nc(N2CCOC[C@@H]2C)c2ccc(-c3ccnc(F)c3)nc2n1` [Example 1au]: the IC50 is less than 1000 nM.

Turning to `C[C@H]1COCCN1c1nc(N2CCOC[C@@H]2C)c2ccc(-c3cccc(C#N)c3)nc2n1` [Example 1aw], the 50% inhibitory concentration (IC50) is less than 1000 nM.

Consider `C[C@H]1COCCN1c1nc(N2CCOC[C@@H]2C)c2ccc(-c3cccc(C(=O)N4CCN(C)CC4)c3)nc2n1` [Example 1bf], for which the half-inhibitory concentration (IC50) was less than 1000 nM.

As to `C[C@H]1COCCN1c1nc(N2CCOC[C@@H]2C)c2ccc(-c3cccnc3)nc2n1` [Example 1bu], the IC50 is less than 1000 nM.

On to `C[C@@H]1CN(c2nc(N3CCOC[C@@H]3C)c3ccc(-c4ccncc4)nc3n2)C[C@H](C)O1` [Example 1ce], for which the half-inhibitory concentration (IC50) is less than 1000 nM.

For `C[C@H]1COCCN1c1nc(N2CCOC[C@@H]2C)c2ccc(-c3ccc4nc[nH]c(=O)c4c3)nc2n1` [Example 1cl], the IC50 was less than 1000 nM.

Regarding `C[C@H]1COCCN1c1nc(N2CCCC(CO)C2)nc2nc(-c3cccc(C(N)=O)c3)ccc12` (some centres unmarked) [Example 2d], the 50% inhibitory concentration (IC50) was less than 1000 nM.

With `C[C@H]1COCCN1c1nc(N2CCC(c3ccncc3)CC2)nc2nc(-c3ccc(N)nc3)ccc12` [Example 2e], the half-inhibitory concentration (IC50) is less than 1000 nM.

Consider `C[C@H]1COCCN1c1nc(N2CCC(CO)CC2)nc2nc(-c3cccc(C(N)=O)c3)ccc12` [Example 2h], for which the 50% inhibitory concentration (IC50) was less than 1000 nM.

Consider `C[C@H]1COCCN1c1nc(N2CCC(CCO)CC2)nc2nc(-c3ccc(N)nc3)ccc12` [Example 2j], for which the IC50 was less than 1000 nM.

`C[C@H]1COCCN1c1nc(N2CCOC[C@@H]2C)c2ccc(-c3cccc(C(=O)NCC(F)(F)F)c3)nc2n1` [Example 3f]: the 50% inhibitory concentration (IC50) was less than 1000 nM.

The assay is the same for the next values; noted with them: Homo sapiens; phospho-Ser473 Akt assay, MDA-MB-468 cells, upper bound; read-out: IC50 values against mTOR.
Regarding `C[C@H]1COCCN1c1nc(N2CCOC[C@@H]2C)c2ccc(-c3cccc(Cl)n3)nc2n1` [Example 1v], the half-maximal inhibitory concentration (IC50) was less than 1000 nM.
